# Results: patent US9096559B2, “4-carboxybenzylamino derivatives as histone deacetylase inhibitors” (Merck Sharp & Dohme Corp., priority 2007, dated 2015)
# Biological target: histone deacetylase, subtype 1 (HDAC1) (Homo sapiens (Human), UniProt Q13547)
# Assay: HDAC1-Flag in vitro deacetylation assay
# Type: biochemical
# Settings: IP = inflection point; read-out: HDAC1 IP (inflection point)
# Procedure: Novel compounds were tested for their ability to inhibit histone deacetylase, subtype 1 (HDAC1) using an in vitro deacetylation assay. The enzyme source for this assay was an epitope-tagged human HDAC1 complex immuno-purified from stably expressing mammalian cells. The substrate consisted of a commercial product containing an acetylated lysine side chain (BIOMOL Research Laboratories, Inc., Plymouth Meeting, Pa.). Upon deacetylation of the substrate by incubation with the purified HDAC1 complex, a fluorophore is produced that is directly proportional to the level of deacetylation.
# histone deacetylase, subtype 1 (HDAC1), sequence (Q13547 whole entry): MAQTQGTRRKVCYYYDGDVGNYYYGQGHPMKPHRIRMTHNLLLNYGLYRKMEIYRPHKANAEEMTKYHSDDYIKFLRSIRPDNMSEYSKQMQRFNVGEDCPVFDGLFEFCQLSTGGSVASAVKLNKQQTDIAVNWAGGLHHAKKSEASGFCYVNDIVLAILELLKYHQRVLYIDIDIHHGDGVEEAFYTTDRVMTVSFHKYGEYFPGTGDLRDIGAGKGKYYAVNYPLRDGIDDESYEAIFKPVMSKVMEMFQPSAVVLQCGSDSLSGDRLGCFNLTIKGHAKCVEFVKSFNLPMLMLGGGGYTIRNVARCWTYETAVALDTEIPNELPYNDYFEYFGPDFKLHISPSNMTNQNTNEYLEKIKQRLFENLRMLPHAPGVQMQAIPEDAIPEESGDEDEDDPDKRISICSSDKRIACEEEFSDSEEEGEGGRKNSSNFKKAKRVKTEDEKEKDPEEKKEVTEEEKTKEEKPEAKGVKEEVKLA
row,SMILES,IC50 [µM]
1,"COC(=O)c1ccc(-c2ccc(N)c(NC(=O)c3ccc(CNC(=O)OCc4cccnc4)cc3)c2)cc1 [Example 2, methyl 4′-amino-3′-[({4-[({[(pyridin-3-ylmethyl)oxy]carbonyl}amino)methyl]phenyl}carbonyl)amino]biphenyl-4-carboxylate]",0.081
2,"Nc1ccc(-c2cccnc2)cc1NC(=O)c1ccc(CNC(=O)OCc2cccnc2)cc1 [Example 3, pyridin-3-ylmethyl[(4-{[(2-amino-5-pyridin-3-ylphenyl)amino]carbonyl}phenyl)methyl]carbamate]",0.017
3,"O=C(NCc1ccc(C(=O)Nc2cc(-c3ccccc3)ccc2O)cc1)OCc1cccnc1 [Example 5, pyridin-3-ylmethyl[(4-{[(4-hydroxybiphenyl-3-yl)amino]carbonyl}phenyl)methyl]carbamate]",0.02
4,"CC(C)(C)OC(=O)NCc1ccc(C(=O)Nc2cc(-c3ccccc3)ccc2O)cc1 [Example 7, 1,1-dimethylethyl[(4-{[(4-hydroxybiphenyl-3-yl)amino]carbonyl}phenyl)methyl]carbamate]",0.07
5,"NCc1ccc(C(=O)Nc2cc(-c3ccccc3)ccc2O)cc1 [Example 8, 4-(aminomethyl)-N-(4-hydroxybiphenyl-3-yl)benzamide]",0.028
6,"O=C(Nc1cc(-c2ccccc2)ccc1O)c1ccc(CNCCc2ccccc2)cc1 [Example 71, N-(4-hydroxy-3-biphenylyl)-4-{[(2-phenylethyl)amino]methyl}benzamide]",0.97
7,"O=C(Nc1cc(-c2ccccc2)ccc1O)c1ccc(CNCCc2ccc(Br)cc2)cc1 [Example 72, 4-({[2-(4-bromophenyl)ethyl]amino}methyl)-N-(4-hydroxy-3-biphenylyl)benzamide]",1.8
8,"CC(C)CNCc1ccc(C(=O)Nc2cc(-c3ccccc3)ccc2O)cc1 [Example 73, N-(4-hydroxy-3-biphenylyl)-4-[(isobutylamino)methyl]benzamide]",0.11
9,"Cc1nc(-c2ccccc2)sc1CNCc1ccc(C(=O)Nc2cc(-c3ccccc3)ccc2O)cc1 [Example 74, N-(4-hydroxy-3-biphenylyl)-4-({[(4-methyl-2-phenyl-1,3-thiazol-5-yl)methyl]amino}methyl)benzamide]",0.69
10,"O=C(Nc1cc(-c2ccccc2)ccc1O)c1ccc(CNC2CC2)cc1 [Example 75, 4-[(cyclopropylamino)methyl]-N-(4-hydroxy-3-biphenylyl)benzamide]",0.076
11,"O=C(Nc1cc(-c2ccccc2)ccc1O)c1ccc(CNc2ccccc2)cc1 [Example 76, 4-(anilinomethyl)-N-(4-hydroxy-3-biphenylyl)benzamide]",0.089
12,"O=C(Nc1cc(-c2ccccc2)ccc1O)c1ccc(CNC2CCCC2)cc1 [Example 77, 4-[(cyclopentylamino)methyl]-N-(4-hydroxy-3-biphenylyl)benzamide]",0.15
13,"O=C(Nc1cc(-c2ccccc2)ccc1O)c1ccc(CNCC2CC2)cc1 [Example 78, 4-{[(cyclopropylmethyl)amino]methyl}-N-(4-hydroxy-3-biphenylyl)benzamide]",0.072
14,"CN(C)CCNCc1ccc(C(=O)Nc2cc(-c3ccccc3)ccc2O)cc1 [Example 80, 4-({[2-(dimethylamino)ethyl]amino}methyl)-N-(4-hydroxy-3-biphenylyl)benzamide]",0.12
15,"O=C(Nc1cc(-c2ccccc2)ccc1O)c1ccc(CNCc2cccnc2)cc1 [Example 81, N-(4-hydroxy-3-biphenylyl)-4-{[(3-pyridinylmethyl)amino]methyl}benzamide]",0.032
16,"O=C(Nc1cc(-c2ccccc2)ccc1O)c1ccc(CNCCCN2CCCC2)cc1 [Example 82, N-(4-hydroxy-3-biphenylyl)-4-({[3-(1-pyrrolidinyl)propyl]amino}methyl)benzamide]",0.091
17,"O=C(Nc1cc(-c2ccccc2)ccc1O)c1ccc(CN2CCNCC2)cc1 [Example 83, N-(4-hydroxy-3-biphenylyl)-4-(1-piperazinylmethyl)benzamide]",0.065
18,"O=C(Nc1cc(-c2ccccc2)ccc1O)c1ccc(CNc2ccncc2)cc1 [Example 84, N-(4-hydroxy-3-biphenylyl)-4-[(4-pyridinylamino)methyl]benzamide]",0.0099
19,"O=C(Nc1cc(-c2ccccc2)ccc1O)c1ccc(CN2CCOCC2)cc1 [Example 85, N-(4-hydroxy-3-biphenylyl)-4-(4-morpholinylmethyl)benzamide]",0.048
20,"CC(C)OCCCNCc1ccc(C(=O)Nc2cc(-c3ccccc3)ccc2O)cc1 [Example 86, N-(4-hydroxy-3-biphenylyl)-4-{[(3-isopropoxypropyl)amino]methyl}benzamide]",0.095
21,"CC1CCN(Cc2ccc(C(=O)Nc3cc(-c4ccccc4)ccc3O)cc2)CC1 [Example 87, N-(4-hydroxy-3-biphenylyl)-4-[(4-methyl-1-piperidinyl)methyl]benzamide]",0.22
22,"CN(Cc1ccccc1)Cc1ccc(C(=O)Nc2cc(-c3ccccc3)ccc2O)cc1 [Example 88, 4-{[benzyl(methyl)amino]methyl}-N-(4-hydroxy-3-biphenylyl)benzamide]",0.35

row,SMILES,IC50 [µM]
1,"O=C(Nc1cc(-c2ccccc2)ccc1O)c1ccc(CNCCCc2ccccc2)cc1 [Example 89, N-(4-hydroxy-3-biphenylyl)-4-{[(3-phenylpropyl)amino]methyl}benzamide]",0.45
2,"O=C(Nc1cc(-c2ccccc2)ccc1O)c1ccc(CN2CCc3ccccc3C2)cc1 [Example 90, 4-(3,4-dihydro-2(1H)-isoquinolinylmethyl)-N-(4-hydroxy-3-biphenylyl)benzamide]",0.25
3,"CC(C)NCCNCc1ccc(C(=O)Nc2cc(-c3ccccc3)ccc2O)cc1 [Example 91, N-(4-hydroxy-3-biphenylyl)-4-({[2-(isopropylamino)ethyl]amino}methyl)benzamide]",0.044
4,"CC(C)CCNCc1ccc(C(=O)Nc2cc(-c3ccccc3)ccc2O)cc1 [Example 92, N-(4-hydroxy-3-biphenylyl)-4-{[(3-methylbutyl)amino]methyl}benzamide]",0.1
5,"CN(CCc1ccccc1)Cc1ccc(C(=O)Nc2cc(-c3ccccc3)ccc2O)cc1 [Example 93, N-(4-hydroxy-3-biphenylyl)-4-{[methyl(2-phenylethyl)amino]methyl}benzamide]",0.34
6,"CCN(C)Cc1ccc(C(=O)Nc2cc(-c3ccccc3)ccc2O)cc1 [Example 94, 4-{[ethyl(methyl)amino]methyl}-N-(4-hydroxy-3-biphenylyl)benzamide]",0.031
7,"O=C(Nc1cc(-c2ccccc2)ccc1O)c1ccc(CN2Cc3ccccc3C2)cc1 [Example 95, 4-(1,3-dihydro-2H-isoindol-2-ylmethyl)-N-(4-hydroxy-3-biphenylyl)benzamide]",27
8,"O=C(Nc1cc(-c2ccccc2)ccc1O)c1ccc(CNCCOc2ccccc2)cc1 [Example 96, N-(4-hydroxy-3-biphenylyl)-4-{[(2-phenoxyethyl)amino]methyl}benzamide]",0.36
9,"O=C(Nc1cc(-c2ccccc2)ccc1O)c1ccc(CNCCNc2ccccc2)cc1 [Example 97, 4-{[(2-anilinoethyl)amino]methyl}-N-(4-hydroxy-3-biphenylyl)benzamide]",0.26
10,"O=C(Nc1cc(-c2ccccc2)ccc1O)c1ccc(CNCc2cccs2)cc1 [Example 98, N-(4-hydroxy-3-biphenylyl)-4-{[(2-thienylmethyl)amino]methyl}benzamide]",2.1
11,"CNCCCN(C)Cc1ccc(C(=O)Nc2cc(-c3ccccc3)ccc2O)cc1 [Example 99, N-(4-hydroxy-3-biphenylyl)-4-({methyl[3-(methylamino)propyl]amino}methyl)benzamide]",0.018
12,"CN1CCN(Cc2ccc(C(=O)Nc3cc(-c4ccccc4)ccc3O)cc2)CC1 [Example 100, N-(4-hydroxy-3-biphenylyl)-4-[(4-methyl-1-piperazinyl)methyl]benzamide]",2.4
13,"CNCCN(C)Cc1ccc(C(=O)Nc2cc(-c3ccccc3)ccc2O)cc1 [Example 101, N-(4-hydroxy-3-biphenylyl)-4-({methyl[2-(methylamino)ethyl]amino}methyl)benzamide]",0.035
14,"CCN1CCC(CNCc2ccc(C(=O)Nc3cc(-c4ccccc4)ccc3O)cc2)CC1 [Example 102, 4-({[(1-ethyl-4-piperidinyl)methyl]amino}methyl)-N-(4-hydroxy-3-biphenylyl)benzamide]",0.065
15,"CN(Cc1ccc(C(=O)Nc2cc(-c3ccccc3)ccc2O)cc1)c1ccncc1 [Example 103, N-(4-hydroxy-3-biphenylyl)-4-{[methyl(4-pyridinyl)amino]methyl}benzamide]",0.013
16,"CN(CCc1ccncc1)Cc1ccc(C(=O)Nc2cc(-c3ccccc3)ccc2O)cc1 [Example 104, N-(4-hydroxy-3-biphenylyl)-4-({methyl[2-(4-pyridinyl)ethyl]amino}methyl)benzamide]",0.033
17,"O=C(Nc1cc(-c2ccccc2)ccc1O)c1ccc(CNCCc2cccnc2)cc1 [Example 105, N-(4-hydroxy-3-biphenylyl)-4-({[2-(3-pyridinyl)ethyl]amino}methyl)benzamide]",2.5
18,"CN(C)C1CCN(Cc2ccc(C(=O)Nc3cc(-c4ccccc4)ccc3O)cc2)C1 (stereo not shown) [Example 106, 4-{[3-(dimethylamino)-1-pyrrolidinyl]methyl}-N-(4-hydroxy-3-biphenylyl)benzamide]",0.05
19,"NCCNCc1ccc(C(=O)Nc2cc(-c3ccccc3)ccc2O)cc1 [Example 107, 4-{[(2-aminoethyl)amino]methyl}-N-(4-hydroxy-3-biphenylyl)benzamide]",0.072
20,"O=C(Nc1cc(-c2ccccc2)ccc1O)c1ccc(CNC2Cc3ccccc3C2)cc1 [Example 108, 4-[(2,3-dihydro-1H-inden-2-ylamino)methyl]-N-(4-hydroxy-3-biphenylyl)benzamide]",0.16
21,"O=C(Nc1cc(-c2ccccc2)ccc1O)c1ccc(CNCCCc2ccncc2)cc1 [Example 109, N-(4-hydroxy-3-biphenylyl)-4-({[3-(4-pyridinyl)propyl]amino}methyl)benzamide]",0.1
